Several values for one entry are separate records, joined by “and”; a condition that tells them apart may be missing. Equal entries are not always repeated. Inconclusive results and toxic doses are left out. Peptide text beside a SMILES is read from it. * marks the point of attachment. Cbz = O=C(OCc1ccccc1)*; Bn = c1ccc(C*)cc1
System: P388 leukemia ip, CD2F1 mice, survival T/C
Assay: NCI In Vivo Anticancer Drug Screen. Data for tumor model P388 Leukemia (intraperitoneal) in CD2F1 (CDF1) mice
Details: endpoint: median survival time, higher = longer survival
How it was run: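 Mice carrying the transplanted tumor received test compound or vehicle. Survival was recorded in each group, and the value is the treated-group measurement divided by that of the vehicle-treated control group.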

[1] = dose: 50.0 mg/kg/injection, schedule: Q01DX005 (ip), vehicle: Klucel (hydroxypropylcellulose) (HPC)
[2] = dose: 100.0 mg/kg/injection, schedule: Q01DX005 (ip), vehicle: Klucel (hydroxypropylcellulose) (HPC)
[3] = dose: 200.0 mg/kg/injection, schedule: Q01DX005 (ip), vehicle: Klucel (hydroxypropylcellulose) (HPC)
[4] = dose: 50.0 mg/kg/injection, schedule: Q01DX005 (ip), vehicle: saline with Tween-80
[5] = dose: 100.0 mg/kg/injection, schedule: Q01DX005 (ip), vehicle: saline with Tween-80
[6] = dose: 200.0 mg/kg/injection, schedule: Q01DX005 (ip), vehicle: saline with Tween-80
[7] = dose: 60.0 mg/kg/injection, schedule: Q01DX005 (ip), vehicle: saline with Tween-80
[8] = dose: 120.0 mg/kg/injection, schedule: Q01DX005 (ip), vehicle: saline with Tween-80
[9] = dose: 240.0 mg/kg/injection, schedule: Q01DX005 (ip), vehicle: saline with Tween-80
[10] = dose: 50.0 mg/kg/injection, schedule: Q04DX003 (ip), vehicle: saline
[11] = dose: 100.0 mg/kg/injection, schedule: Q04DX003 (ip), vehicle: saline
[12] = dose: 200.0 mg/kg/injection, schedule: Q04DX003 (ip), vehicle: saline

COc1ccc(CCN2C(=O)CCC3=C2CCC3=O)cc1OC
T/C (dose: 25.0 mg/kg/injection, schedule: Q01DX005 (ip), vehicle: Klucel (hydroxypropylcellulose) (HPC)): 100 % of control
T/C [1]: 98 % of control
T/C [2]: 100 % of control
T/C [3]: 106 % of control

CC(=O)OCN(C)N=Nc1ccc(C#N)cc1
T/C (dose: 60.0 mg/kg/injection, schedule: Q01DX005 (ip), vehicle: Klucel (hydroxypropylcellulose) (HPC)): 104 % of control
T/C (dose: 120.0 mg/kg/injection, schedule: Q01DX005 (ip), vehicle: Klucel (hydroxypropylcellulose) (HPC)): 108 % of control

CN1C(c2ccccc2)CC(=NOCc2ccccc2)CC1c1ccccc1 (configuration not stated)
T/C [4]: 98 % of control
T/C [5]: 96 % of control
T/C [6]: 89 % of control

CC1(C)OC2OC3COP(=O)(c4ccccc4)C3(CC#N)C2O1 (configuration not stated)
T/C [7]: 94 % of control
T/C [8]: 99 % of control
T/C [9]: 98 % of control

CCCNNC(N)=S
T/C (dose: 12.5 mg/kg/injection, schedule: Q01DX009 (ip), vehicle: other): 105 % of control
T/C (dose: 25.0 mg/kg/injection, schedule: Q01DX009 (ip), vehicle: other): 105 % of control

O=[N+]([O-])c1ccc(SN2CCCCC2)c([N+](=O)[O-])c1
T/C [4]: 100 % of control
T/C [5]: 100 % of control
T/C [6]: 105 % of control

S=c1[nH]nc2nc3c4ccccc4c4ccccc4c3nn12
T/C [10]: 95 % of control
T/C [11]: 95 % of control
T/C [12]: 93 % of control

COC(=O)C(CSCc1ccccc1)NC(=O)C(CC(N)=O)NC(=O)OCc1ccccc1 (stereo not drawn) (Cbz-Asn-Cys(Bn)-OMe; configuration not given here)
T/C (dose: 12.5 mg/kg/injection, schedule: Q01DX009 (ip), vehicle: distilled water + Tween-80): 88 % of control
T/C (dose: 25.0 mg/kg/injection, schedule: Q01DX009 (ip), vehicle: distilled water + Tween-80): 88 % of control
T/C (dose: 50.0 mg/kg/injection, schedule: Q01DX009 (ip), vehicle: distilled water + Tween-80): 91 % of control
T/C (dose: 100.0 mg/kg/injection, schedule: Q01DX009 (ip), vehicle: distilled water + Tween-80): 92 % of control
T/C (dose: 200.0 mg/kg/injection, schedule: Q01DX009 (ip), vehicle: distilled water + Tween-80): 103 % of control

CCOC(=O)N1CCN(C(=S)NNC(C)c2cc3ccccc3cn2)CC1 (configuration not stated)
T/C (dose: 6.25 mg/kg/injection, schedule: Q01DX005 (ip), vehicle: saline with Tween-80): 103 % of control
T/C (dose: 12.5 mg/kg/injection, schedule: Q01DX005 (ip), vehicle: saline with Tween-80): 113 % of control

O=C1Nc2cnc(Cl)nc2Nc2cc(Cl)ccc21
T/C [1]: 95 % of control
T/C [2]: 95 % of control
T/C [3]: 92 % of control

O=c1oc2ccc(Br)cc2cc1-n1nnc2ccccc21
T/C (dose: 15.0 mg/kg/injection, schedule: Q01DX005 (ip), vehicle: saline with Tween-80): 88 % of control
T/C (dose: 30.0 mg/kg/injection, schedule: Q01DX005 (ip), vehicle: saline with Tween-80): 93 % of control
T/C [7]: 88 % of control and 90 % of control
T/C [8]: 86 % of control and 97 % of control
T/C [9]: 97 % of control

CC(=O)Nc1ccc(C(=O)c2ccccc2)cc1
T/C (dose: 25.0 mg/kg/injection, schedule: Q04DX003 (ip), vehicle: saline): 102 % of control
T/C [10]: 103 % of control
T/C [11]: 100 % of control
T/C [12]: 103 % of control

O=C(c1ccccc1)N(C(=S)N(C(=O)c1ccccc1)c1ccccc1)c1ccccc1
T/C [7]: 100 % of control
T/C [8]: 91 % of control
T/C [9]: 95 % of control

CC(NNC(=S)N1CCCC1)c1cccc[n+]1[O-] (configuration not stated)
T/C [4]: 101 % of control
T/C [5]: 100 % of control
T/C [6]: 94 % of control

CCSC(SCC)C(NC(C)=O)C(O)C(O)C(O)CO (configuration not stated)
T/C (dose: 12.5 mg/kg/injection, schedule: Q01DX009 (ip), vehicle: water): 114 % of control
T/C (dose: 25.0 mg/kg/injection, schedule: Q01DX009 (ip), vehicle: water): 113 % of control
T/C (dose: 50.0 mg/kg/injection, schedule: Q01DX009 (ip), vehicle: water): 107 % of control
T/C (dose: 100.0 mg/kg/injection, schedule: Q01DX009 (ip), vehicle: water): 109 % of control
T/C (dose: 200.0 mg/kg/injection, schedule: Q01DX009 (ip), vehicle: water): 106 % of control

COc1ccc(OC)c(C2N(Cc3ccc(N(C)C)cc3)CCCN2Cc2ccc(N(C)C)cc2)c1
T/C (dose: 50.0 mg/kg/injection, schedule: Q04DX003 (ip), vehicle: saline with Tween-80): 91 % of control
T/C (dose: 100.0 mg/kg/injection, schedule: Q04DX003 (ip), vehicle: saline with Tween-80): 91 % of control

OCc1ccc(CO)cc1
T/C (dose: 100.0 mg/kg/injection, schedule: Q04DX003 (ip), vehicle: saline sonified): 104 % of control
T/C (dose: 200.0 mg/kg/injection, schedule: Q04DX003 (ip), vehicle: saline sonified): 100 % of control
T/C (dose: 400.0 mg/kg/injection, schedule: Q04DX003 (ip), vehicle: saline sonified): 100 % of control

NC(CSCCCSCC(N)C(=O)O)C(=O)O (configuration not stated)
T/C (dose: 25.0 mg/kg/injection, schedule: Q01DX001 (ip), vehicle: Klucel (hydroxypropylcellulose) (HPC)): 97 % of control
T/C (dose: 50.0 mg/kg/injection, schedule: Q01DX001 (ip), vehicle: Klucel (hydroxypropylcellulose) (HPC)): 97 % of control
T/C (dose: 100.0 mg/kg/injection, schedule: Q01DX001 (ip), vehicle: Klucel (hydroxypropylcellulose) (HPC)): 96 % of control and 97 % of control
T/C (dose: 200.0 mg/kg/injection, schedule: Q01DX001 (ip), vehicle: Klucel (hydroxypropylcellulose) (HPC)): 104 % of control

CCN(CC)[Si](C)(C)C
T/C (dose: 60.0 mg/kg/injection, schedule: Q01DX005 (ip), vehicle: saline): 93 % of control
T/C (dose: 120.0 mg/kg/injection, schedule: Q01DX005 (ip), vehicle: saline): 94 % of control

C[N+]12CCC34C5=CC(=O)C(=O)C=C5[N+]5(C)C(=O)CC6OCC=C(C1)C(CC32)C6C45 (configuration not stated)
T/C (dose: 7.5 mg/kg/injection, schedule: Q01DX005 (ip), vehicle: saline): 102 % of control
T/C (dose: 15.0 mg/kg/injection, schedule: Q01DX005 (ip), vehicle: saline): 104 % of control
T/C (dose: 30.0 mg/kg/injection, schedule: Q01DX005 (ip), vehicle: saline): 97 % of control

Cc1ccc(S(=O)c2cc(C)cc(C(C)(C)C)c2O)cc1 (configuration not stated)
T/C (dose: 50.0 mg/kg/injection, schedule: Q01DX009 (ip), vehicle: saline with Tween-80): 103 % of control
T/C (dose: 100.0 mg/kg/injection, schedule: Q01DX009 (ip), vehicle: saline with Tween-80): 105 % of control
T/C (dose: 200.0 mg/kg/injection, schedule: Q01DX009 (ip), vehicle: saline with Tween-80): 96 % of control

CCCOc1cc2c(cc1C(C)c1ccccc1)OCO2 (configuration not stated)
T/C [4]: 101 % of control
T/C [5]: 95 % of control
T/C [6]: 96 % of control

NNC(=S)N/N=C/c1ccccn1
T/C (dose: 0.78 mg/kg/injection, schedule: Q01DX009 (ip), vehicle: saline): 99 % of control
T/C (dose: 1.56 mg/kg/injection, schedule: Q01DX009 (ip), vehicle: saline): 102 % of control and 117 % of control
T/C (dose: 1.56 mg/kg/injection, schedule: Q01DX009 (ip), vehicle: suspension in saline): 107 % of control
T/C (dose: 3.12 mg/kg/injection, schedule: Q01DX009 (ip), vehicle: suspension in saline): 109 % of control
T/C (dose: 6.25 mg/kg/injection, schedule: Q01DX009 (ip), vehicle: saline with Tween-80): 100 % of control
T/C (dose: 6.25 mg/kg/injection, schedule: Q01DX009 (ip), vehicle: saline): 110 % of control
T/C (dose: 6.25 mg/kg/injection, schedule: Q01DX009 (ip), vehicle: suspension in saline): 111 % of control
T/C (dose: 12.5 mg/kg/injection, schedule: Q01DX009 (ip), vehicle: saline): 150 % of control
T/C (dose: 16.5 mg/kg/injection, schedule: Q01DX009 (ip), vehicle: saline sonified): 122 % of control
T/C (dose: 25.0 mg/kg/injection, schedule: Q01DX009 (ip), vehicle: saline with Tween-80): 150 % of control
T/C (dose: 25.0 mg/kg/injection, schedule: Q01DX009 (ip), vehicle: saline): 154 % of control and 170 % of control

Nc1cc(S(=O)(=O)O)c(Br)c(Br)c1Br
T/C (dose: 50.0 mg/kg/injection, schedule: Q01DX009 (ip), vehicle: saline): 94 % of control
T/C (dose: 100.0 mg/kg/injection, schedule: Q01DX009 (ip), vehicle: saline): 95 % of control
T/C (dose: 200.0 mg/kg/injection, schedule: Q01DX009 (ip), vehicle: saline): 90 % of control

CN(C)CN1C(=O)CC(c2ccccc2)C1=O (configuration not stated)
T/C (dose: 50.0 mg/kg/injection, schedule: Q01DX005 (ip), vehicle: saline): 110 % of control
T/C (dose: 100.0 mg/kg/injection, schedule: Q01DX005 (ip), vehicle: saline): 107 % of control
T/C (dose: 200.0 mg/kg/injection, schedule: Q01DX005 (ip), vehicle: saline): 115 % of control

— PubChem BioAssay AID330 (DTP/NCI, 2004)
